Assay results published in patent US20020052377A1, “Method for treating angina” (priority 2000, published 2002).
Where two headings read alike, the source gives them in different places.

Tests used:
[1] = system: patients with chronic stable angina pectoris; experiment: Exercise treadmill test (ETT), IR ranolazine.2HCl, placebo-controlled crossover (Example 3); format: in vivo, human; details: for Time to onset angina (mean) / Exercise Duration (mean) / Time to 1 mm ST depression (mean): all patients
Experimental: In this Example, the safety and anti-ischemic effects of high plasma ranolazine levels in a large group of angina patients was evaluated and the duration of any effects during steady-state dosing with bid and tid regimens was assessed. In this Example, patients with chronic stable angina pectoris who were responsive to conventional antianginal drugs were treated with 3 ranolazine.2HCl dosing regimens: 267 mg tid, 400 mg bid and 400 mg tid IR Formulations of Example 1. Exercise testing parameters and ranolazine free base concentrations were determined at peak and trough plasma levels.
The study involved double-blind, placebo-controlled randomized treatment phase with 4 treatments (placebo, ranolazine.2HCl 400 mg bid, ranolazine.2HCl 267 mg tid, and ranolazine.2HCl 400 mg tid), 4 treatment sequences and 5 double-blind treatment periods in an extended period Latin square design on pre-qualified patients who were responsive to known antianginal therapy and had stable exercise times.
Human patients with chronic stable angina pectoris, of at least 3 months' duration, that had responded to conventional antianginal therapy were considered candidates. In addition, patients had to have electrocardiogrpahic (ECG) evidence of exercise-induced ischemia based upon horizontal or down-sloping ST-segment depression of ≧1 mm that persisted in 3 consecutive beats during an exercise stress test and an ECG pattern that would not interfere with interpretation of ST-segment changes. The latter criterion specifically excluded patients with left ventricular hypertrophy, pre-excitation, conduction abnormalities, or pacemaker rhythm. Other exclusion criteria included unstable angina or myocardial infarction within the preceding 3 months, heart failure defined as New York Heart Association Class HI or IV, significant valvular or congenital heart disease that was uncorrected, need for digoxin or long-acting nitrate therapy, labile diabetes mellitus, or other serious conditions that would confuse follow-up evaluation.
These immediate release ranolazine.2HCl dosing regimens (267 mg tid, 400 mg bid, 400 mg tid) and a placebo were administered during the treatment phase. Patients took one capsule containing either 267 mg or 400 mg of ranolazine dihydrochloride, or placebo at 8:00 a.m., 4:00 p.m., 8:00 p.m. and 12:00 a.m. All capsules were identical in appearance. Patients were randomized to 1 of 4 treatment sequences, with 25% of the patients assigned to each sequence. Each treatment was administered for 1 week, with one treatment repeated during a fifth 1 week period.
To qualify patients receiving their usual antianginal medications underwent a screening exercise treadmill test (ETT-1) using a Sheffield modified Bruce protocol. If the time to onset angina was […], an antianginal drug was withdrawn and treatment with single-blind placebo was initiated. After 1 to 2 weeks, patients returned for another ETT (ETT-2). If the time to onset angina decreased by 1 minute compared with ETT-1, the patient was considered to have completed the first qualifying ETT. If the decrease in time to onset angina was not ≧1 minute, a second antianginal drug could be withdrawn and the above sequence repeated. If necessary, a third antianginal drug could be withdrawn according to this procedure in order for the patient to qualify. Long-acting nitrates were always withdrawn first; beta-blockers; and calcium antagonists could be withdrawn in either order from patients not receiving long-acting nitrates. After the patient achieved the first qualifying ETT (ETT-2), a second qualifying ETT (ETT-3) was performed in which the time to onset angina had to be within i 15% of that observed during ETT-2. In addition, each of the qualifying ETTs had to have ECG signs of ischemia (≧1 mm horizontal or down-sloping ST-segment depression in 3 consecutive beats). Patients meeting these criteria were used in the study. […]

[2] = system: patients with angina, with or without diabetes; experiment: MARISA exercise duration, diabetic (DM) vs non-DM patients; format: in vivo, human
Experimental: In this Example, ranolazine (Ran) was administered to two sets of human subjects. The first set of subjects were suffering from angina alone while the second set of subjects were suffering from angina and diabetes. The […] (Monotherapy Assessment of Ranolazine in Stable Angina) study randomized patients to Ran (500 mg, 1000 mg and 1500 mg bit) and placebo in a double-blind, 4 period crossover study. All patients performed a modified Bruce exercise test at the time of trough and peak drug levels on each treatment; 42 patients with DM were compared to 133 non-DM patients.

[3] = MARISA ranolazine plasma concentration; format: in vivo; details: human, oral; for concentration at 4 h: read-out: Ranolazine Plasma Concentration, Peak, mean (SD); for concentration at 12 h: read-out: Ranolazine Plasma Concentration, Trough, mean (SD)
Experimental: Methods: Patients withdrawn from other anti-anginal drugs with reproducible angina-limited exercise duration and ≧1 mm ST depression were randomized to Ran (500 mg bid, 1000 mg bit and 1500 mg bid) and matching placebo (Pbo) in a double-blind, four-period, Latin square crossover design. Exercise testing with a modified Bruce protocol was performed at both trough (12 hr after dosing) and peak (4 hr after dosing). Results: 49 centers in the USA, Czech Republic, Poland and Canada randomized 191 patients. 168 completed all 4 double-blind treatment periods; 7 more completed 3 of 4 periods.
Results: Ran improved exercise duration times in comparison to the placebo.

[4] = Peak, ranolazine.2HCl IR 267 mg tid
[5] = Peak, ranolazine.2HCl IR 400 mg bid
[6] = Peak, ranolazine.2HCl IR 400 mg tid
[7] = Trough, ranolazine.2HCl IR 267 mg tid
[8] = Trough, ranolazine.2HCl IR 400 mg bid
[9] = Trough, ranolazine.2HCl IR 400 mg tid

COc1ccccc1OCC(O)CN1CCN(CC(=O)Nc2c(C)cccc2C)CC1 (racemic) [Ranolazine, (±)-N-(2,6-dimethylphenyl)-4-[2-hydroxy-3-(2-methoxyphenoxy)propyl]-1-piperazine-acetamide]
Time to onset angina (mean) ([1]; Peak (1 hour after dose), ranolazine.2HCl IR 267 mg tid): 9.40 min
Time to onset angina (mean) ([1]; Peak (1 hour after dose), ranolazine.2HCl IR 400 mg bid): 9.33 min
Time to onset angina (mean) ([1]; Peak (1 hour after dose), ranolazine.2HCl IR 400 mg tid): 9.33 min
Exercise Duration (mean) [1, 4]: 10.87 min
Time to 1 mm ST depression (mean) [1, 4]: 9.99 min
Exercise Duration (mean) [1, 5]: 10.83 min
Time to 1 mm ST depression (mean) [1, 5]: 9.86 min
Exercise Duration (mean) [1, 6]: 10.84 min
Time to 1 mm ST depression (mean) [1, 6]: 9.94 min
Time to onset angina (mean) ([1]; Trough (approx. 8 hours after dosing), ranolazine.2HCl IR 267 mg tid): 8.78 min
Time to onset angina (mean) ([1]; Trough (approx. 8 hours after dosing), ranolazine.2HCl IR 400 mg bid): 8.77 min
Time to onset angina (mean) ([1]; Trough (approx. 8 hours after dosing), ranolazine.2HCl IR 400 mg tid): 8.65 min
Exercise Duration (mean) [1, 7]: 10.56 min
Time to 1 mm ST depression (mean) [1, 7]: 9.22 min
Exercise Duration (mean) [1, 8]: 10.55 min
Time to 1 mm ST depression (mean) [1, 8]: 9.22 min
Exercise Duration (mean) [1, 9]: 10.60 min
Time to 1 mm ST depression (mean) [1, 9]: 9.31 min
threshold plasma ranolazine free base concentration for anti-ischemic activity detected during ETT ([1]; estimated from peak and trough results): above 550 ng per mL
prolongation of time to onset of angina, duration of exercise and time to 1-mm ST-segment depression over placebo, on average ([1]; peak plasma concentrations, three dosing regimens): about 0.33 minutes
Ls mean ED ([2]; DM n = 42, 500 mg bid, peak): 527 s
Ls mean ED ([2]; DM n = 42, 500 mg bid, trough): 520 s
Ls mean ED ([2]; DM n = 42, 1000 mg bid, peak): 550 s
Ls mean ED ([2]; DM n = 42, 1000 mg bid, trough): 526 s
Ls mean ED ([2]; DM n = 42, 1500 mg bid, peak): 547 s
Ls mean ED ([2]; DM n = 42, 1500 mg bid, trough): 530 s
Ls mean ED ([2]; Non-DM n = 133, 500 mg bid, peak): 530 s
Ls mean ED ([2]; Non-DM n = 133, 500 mg bid, trough): 528 s
Ls mean ED ([2]; Non-DM n = 133, 1000 mg bid, peak): 550 s
Ls mean ED ([2]; Non-DM n = 133, 1000 mg bid, trough): 539 s
Ls mean ED ([2]; Non-DM n = 133, 1500 mg bid, peak): 557 s
Ls mean ED ([2]; Non-DM n = 133, 1500 mg bid, trough): 544 s
concentration at 4 h ([3]; 500 mg BID): 1120 ng/mL
concentration at 12 h ([3]; 500 mg BID): 846 ng/mL
concentration at 4 h ([3]; 1000 mg BID): 2460 ng/mL
concentration at 12 h ([3]; 1000 mg BID): 1950 ng/mL
concentration at 4 h ([3]; 1500 mg BID): 3940 ng/mL
concentration at 12 h ([3]; 1500 mg BID): 3270 ng/mL
